Reference: the NIST ThermoML archive (doi:10.1021/acs.jced.5b00259)

What was measured:
[1] = 100 kPa, Liquid
[2] = xn = mol fraction of the nth substance listed; conditions: 100 kPa, Liquid, x2 = 0

CCOS(=O)(=O)[O-].CC[NH+]=C(N(C)C)N(C)C [2-ethyl-1,1,3,3-tetramethylguanidinium ethyl sulfate]
[1]
Conditions | mass density [kg/m3] | viscosity [mPa·s]
293.15 K | 1170.76 | 673.4
298.15 K | 1167.24 | 441.5
303.15 K | 1163.76 | 302.5
308.15 K | 1160.28 | 214.6
313.15 K | 1156.8 | 157.2
318.15 K | 1153.33 | 118.3
323.15 K | 1149.87 | 91.22

CCO [ethanol] + CCOS(=O)(=O)[O-].CC[NH+]=C(N(C)C)N(C)C
[2]
Conditions | mass density [kg/m3] | viscosity [mPa·s]
293.15 K | 789.62 | 1.177
298.15 K | 785.25 | 1.071
303.15 K | 780.89 | 0.978
308.15 K | 776.52 | 0.895
313.15 K | 772.12 | 0.822
318.15 K | 767.71 | 0.756
323.15 K | 763.26 | 0.698

CCO [ethanol] + CC[NH+]=C(N(C)C)N(C)C.O=S(=O)([N-]S(=O)(=O)C(F)(F)F)C(F)(F)F
[2]
Conditions | mass density [kg/m3] | viscosity [mPa·s]
293.15 K | 789.62 | 1.177
298.15 K | 785.25 | 1.071
303.15 K | 780.89 | 0.978
308.15 K | 776.52 | 0.895
313.15 K | 772.12 | 0.822
318.15 K | 767.71 | 0.756
323.15 K | 763.26 | 0.698

CC[NH+]=C(N(C)C)N(C)C.O=S(=O)([N-]S(=O)(=O)C(F)(F)F)C(F)(F)F
[1]
Conditions | mass density [kg/m3] | viscosity [mPa·s]
293.15 K | 1414.89 | 74.61
298.15 K | 1410.03 | 58.86
303.15 K | 1405.19 | 47.27
308.15 K | 1400.38 | 38.71
313.15 K | 1395.59 | 32.2
318.15 K | 1390.8 | 27.09
323.15 K | 1386.03 | 23.14

CCCO [propan-1-ol]
[1]
Conditions | mass density [kg/m3] | viscosity [mPa·s]
293.15 K | 803.49 | 2.164
298.15 K | 799.49 | 1.948
303.15 K | 795.46 | 1.707
308.15 K | 791.39 | 1.525
313.15 K | 787.29 | 1.366
318.15 K | 783.14 | 1.228
323.15 K | 778.93 | 1.107

CCCO [propan-1-ol] + CC[NH+]=C(N(C)C)N(C)C.O=S(=O)([N-]S(=O)(=O)C(F)(F)F)C(F)(F)F
[2]
Conditions | mass density [kg/m3] | viscosity [mPa·s]
293.15 K | 803.49 | 2.164
298.15 K | 799.49 | 1.948
303.15 K | 795.46 | 1.707
308.15 K | 791.39 | 1.525
313.15 K | 787.29 | 1.366
318.15 K | 783.14 | 1.228
323.15 K | 778.93 | 1.107

CCO [ethanol]
[1]
Conditions | mass density [kg/m3] | viscosity [mPa·s]
293.15 K | 789.62 | 1.177
298.15 K | 785.25 | 1.071
303.15 K | 780.89 | 0.978
308.15 K | 776.52 | 0.895
313.15 K | 772.12 | 0.822
318.15 K | 767.71 | 0.756
323.15 K | 763.26 | 0.698

CCCO [propan-1-ol] + CCOS(=O)(=O)[O-].CC[NH+]=C(N(C)C)N(C)C
[2]
Conditions | mass density [kg/m3] | viscosity [mPa·s]
293.15 K | 803.49 | 2.164
298.15 K | 799.49 | 1.948
303.15 K | 795.46 | 1.707
308.15 K | 791.39 | 1.525
313.15 K | 787.29 | 1.366
318.15 K | 783.14 | 1.228
323.15 K | 778.93 | 1.107
